Reference: US20230115274A1, “COMPOUNDS AND COMPOSITIONS FOR TREATING CONDITIONS ASSOCIATED WITH STING ACTIVITY” (IFM Due, Inc., priority 2019, published 2023)

These molecules were tested against T1, hSTING (Homo sapiens, UniProt Q86WV6, G230A/H232R/R293Q/R71H) (assay: STING reporter assay (luciferase) in THP1-Dual KO-IFNAR2 cells stimulated with 2′3′cGAMP). Details: 2′3′cGAMP 15 μM, 24 h, class symbols.
T1 construct: host or cells: THP1-Dual KO-IFNAR2 cells
Format: cell-based
Description: STING pathway activation by the compounds described herein was measured using THP1-Dual™ cells (KO-IFNAR2).
THP1-Dual™ KO-IFNAR2 Cells (obtained from invivogen) were maintained in RPMI, 10% FCS, 5 ml P/S, 2 mM L-glut, 10 mM Hepes, and 1 mM sodium pyruvate. Compounds were spotted in empty 384 well tissue culture plates (Greiner 781182) by Echo for a final concentration of 0.0017-100 μM. Cells were plated into the TC plates at […], 2×10E6 cells/mL. For activation with STING ligand, 2′3′cGAMP (MW 718.38, obtained from Invivogen), was prepared in Optimem media.
The following solutions were prepared for each 1×384 plate: • Solution A: 2 mL Optimem with one of the following stimuli: • […] • Solution B: 2 mL Optimem with 60 μL Lipofectamine 2000->Incubate 5 min at RT
2 mL of solution A and 2 ml Solution B was mixed and incubated for 20 min at room temperature (RT). 20 uL of transfection solution (A+B) was added on top of the plated cells, with a final 2′3′cGAMP concentration of 15 μM. The plates were then centrifuged immediately at 340 g for 1 minute, after which they were incubated at 37° C., 5% CO2, >98% humidity for 24 h. Luciferase reporter activity was then measured. EC50 values were calculated by using standard methods known in the art.
Luciferase reporter assay: 10 μL of supernatant from the assay was transferred to white 384-plate with flat bottom and squared wells. One pouch of QUANTI-Luc™ Plus was dissolved in 25 mL of water. 100 μL of QLC Stabilizer per 25 mL of QUANTI-Luc™ Plus solution was added. 50 μL of QUANTI-Luc™ Plus/QLC solution per well was then added. Luminescence was measured on a Platereader (e.g., Spectramax I3X (Molecular Devices GF3637001)).
Luciferase reporter activity was then measured. EC50 values were calculated by using standard methods known in the art.

T1 sequence (Q86WV6 whole entry R71H/G230A/H232R/R293Q): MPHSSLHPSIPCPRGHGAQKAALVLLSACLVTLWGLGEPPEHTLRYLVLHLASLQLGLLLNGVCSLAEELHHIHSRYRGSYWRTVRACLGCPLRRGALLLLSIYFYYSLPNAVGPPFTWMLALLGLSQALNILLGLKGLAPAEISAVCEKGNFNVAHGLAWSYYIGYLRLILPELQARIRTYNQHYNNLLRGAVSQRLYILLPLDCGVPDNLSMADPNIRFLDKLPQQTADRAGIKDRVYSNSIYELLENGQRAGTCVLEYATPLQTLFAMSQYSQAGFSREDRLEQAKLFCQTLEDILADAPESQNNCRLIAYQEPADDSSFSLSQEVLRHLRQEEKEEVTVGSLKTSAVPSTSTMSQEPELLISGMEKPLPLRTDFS

SMILES	EC50 [nM]
Cc1cnc2[nH]cc(NC(=O)Nc3ccc(C4CCC(F)(F)CC4)nc3)c2c1 [Compound 106, 1-(6-(4,4-difluorocyclohexyl)pyridin-3-yl)-3-(5-methyl-1H-pyrrolo[2,3-b]pyridin-3-yl)urea]	1000 to 5000
O=C(Nc1cnc(OC2CCC2)c(F)c1)Nc1c[nH]c2ncc(F)cc12 [Compound 111, 1-(6-cyclobutoxy-5-fluoropyridin-3-yl)-3-(5-fluoro-1H-pyrrolo[2,3-b]pyridin-3-yl)urea]	200 to 1000
O=C(Nc1ccc(C2CCC(F)(F)CC2)nc1)Nc1c[nH]c2ncc(Cl)cc12 [Compound 108, 1-(5-chloro-1H-pyrrolo[2,3-b]pyridin-3-yl)-3-(6-(4,4-difluorocyclohexyl)pyridin-3-yl)urea]	200 to 1000
O=C(Nc1ccc(C2CCC(F)(F)CC2)nc1)Nc1cn(C(=O)c2ccccc2)c2ncc(F)cc12 [Compound 121, 1-(1-benzoyl-5-fluoro-1H-pyrrolo[2,3-b]pyridin-3-yl)-3-(6-(4,4-difluorocyclohexyl)pyridin-3-yl)urea]	200 to 1000
O=C(Nc1cnc(N2CCC(F)(F)CC2)c(Cl)c1)Nc1c[nH]c2ccc(Cl)nc12 [Compound 144, 1-(5-chloro-1H-pyrrolo[3,2-b]pyridin-3-yl)-3-(5-chloro-6-(4,4-difluoropiperidin-1-yl)pyridin-3-yl)urea]	200 to 1000
CN(C(=O)OC(C)(C)C)C1CC(n2cc(NC(=O)Nc3ccc(C4CCC(F)(F)CC4)nc3)c3cc(F)cnc32)C1 (stereo not drawn) [Compound 101, tert-butyl (3-(3-(3-(6-(4,4-difluorocyclohexyl)pyridin-3-yl)ureido)-5-fluoro-1H-pyrrolo[2,3-b]pyridin-1-yl)cyclobutyl)(methyl)carbamate]	5000 to 100000
Cc1cc(NC(=O)Nc2c[nH]c3cccnc23)cnc1C1CCC(F)(F)CC1 [Compound 136, 1-(6-(4,4-difluorocyclohexyl)-5-methylpyridin-3-yl)-3-(1H-pyrrolo[3,2-b]pyridin-3-yl)urea]	5000 to 100000
O=C(Nc1cnc(N2CCC(F)(F)CC2)c(Cl)c1)Nc1c[nH]c2cc(F)cnc12 [Compound 145, 1-(5-chloro-6-(4,4-difluoropiperidin-1-yl)pyridin-3-yl)-3-(6-fluoro-1H-pyrrolo[3,2-b]pyridin-3-yl)urea]	200 to 1000
CC(C)n1cc(-c2cnc3[nH]cc(NC(=O)Nc4ccc(C5CCC(F)(F)CC5)nc4)c3c2)cn1 [Compound 107, 1-(6-(4,4-difluorocyclohexyl)pyridin-3-yl)-3-(5-(1-isopropyl-1H-pyrazol-4-yl)-1H-pyrrolo[2,3-b]pyridin-3-yl)urea]	200 to 1000
O=C(Nc1ccc(C2CCCC2)nc1)Nc1c[nH]c2ncc(F)cc12 [Compound 109, 1-(6-cyclopentylpyridin-3-yl)-3-(5-fluoro-1H-pyrrolo[2,3-b]pyridin-3-yl)urea]	200 to 1000
COc1ccc2[nH]cc(NC(=O)Nc3cnc(C4CCC(F)(F)CC4)c(C#N)c3)c2n1 [Compound 140, 1-(5-cyano-6-(4,4-difluorocyclohexyl)pyridin-3-yl)-3-(5-methoxy-1H-pyrrolo[3,2-b]pyridin-3-yl)urea]	200 to 1000
CC(C)(C)OC(=O)N1CCCC(n2cc(NC(=O)Nc3ccc(C4CCC(F)(F)CC4)nc3)c3cc(F)cnc32)C1 (stereo not drawn) [Compound 102, tert-butyl 3-(3-(3-(6-(4,4-difluorocyclohexyl)pyridin-3-yl)ureido)-5-fluoro-1H-pyrrolo[2,3-b]pyridin-1-yl)piperidine-1-carboxylate]	5000 to 100000

Next, values leading:

EC50 [nM]	SMILES
1000 to 5000	COCCOc1ccc2[nH]cc(NC(=O)Nc3ccc(C4CCC(F)(F)CC4)nc3)c2n1 [Compound 212, 1-(6-(4,4-difluorocyclohexyl)pyridin-3-yl)-3-(5-(2-methoxyethoxy)-1H-pyrrolo[3,2-b]pyridin-3-yl)urea]
40 to 200	O=C(Nc1cc(Cl)c(C2CCC(F)(F)CC2)cn1)Nc1c[nH]c2ncc(F)cc12 [Compound 152, 1-(4-chloro-5-(4,4-difluorocyclohexyl)pyridin-2-yl)-3-(5-fluoro-1H-pyrrolo[2,3-b]pyridin-3-yl)urea]
5000 to 100000	O=C(Nc1cnc(N2CCC(F)(F)CC2)c(Cl)c1)Nc1c[nH]c2cc(Br)cnc12 [Compound 240, 1-(6-bromo-1H-pyrrolo[3,2-b]pyridin-3-yl)-3-(5-chloro-6-(4,4-difluoropiperidin-1-yl)pyridin-3-yl)urea]
200 to 1000	COc1cc(NC(=O)Nc2c[nH]c3ncc(F)cc23)cnc1N1CCC(F)(F)CC1 [Compound 165, 1-(6-(4,4-difluoropiperidin-1-yl)-5-methoxypyridin-3-yl)-3-(5-fluoro-1H-pyrrolo[2,3-b]pyridin-3-yl)urea]
200 to 1000	COc1ccc2[nH]cc(NC(=O)Nc3ccc(C4CCC(F)(F)CC4)c(C#N)c3)c2n1 [Compound 150, 1-(3-cyano-4-(4,4-difluorocyclohexyl)phenyl)-3-(5-methoxy-1H-pyrrolo[3,2-b]pyridin-3-yl)urea]
200 to 1000	O=C(Nc1cnc(N2CCC3(CC2)CC(F)(F)C3)c(Cl)c1)Nc1c[nH]c2cccnc12 [Compound 226, 1-(5-chloro-6-(2,2-difluoro-7-azaspiro[3.5]nonan-7-yl)pyridin-3-yl)-3-(1H-pyrrolo[3,2-b]pyridin-3-yl)urea]
200 to 1000	COCCOc1ccc2[nH]cc(NC(=O)Nc3cnc(N4CCC(F)(F)CC4)c(Cl)c3)c2n1 [Compound 218, 1-(5-chloro-6-(4,4-difluoropiperidin-1-yl)pyridin-3-yl)-3-(5-(2-methoxyethoxy)-1H-pyrrolo[3,2-b]pyridin-3-yl)urea]
200 to 1000	Cc1cc(NC(=O)Nc2c[nH]c3ncc(F)cc23)cnc1N1CC(F)(F)C1 [Compound 171, 1-(6-(3,3-difluoroazetidin-1-yl)-5-methylpyridin-3-yl)-3-(5-fluoro-1H-pyrrolo[2,3-b]pyridin-3-yl)urea]
200 to 1000	COc1cnc2[nH]cc(NC(=O)Nc3cnc(N4CCC(F)(F)CC4)c(Cl)c3)c2c1 [Compound 181, 1-(5-chloro-6-(4,4-difluoropiperidin-1-yl)pyridin-3-yl)-3-(5-methoxy-1H-pyrrolo[2,3-b]pyridin-3-yl)urea]
200 to 1000	O=C(Nc1cnc(N2CCC(F)(F)CC2)c(Cl)c1)Nc1c[nH]c2ccc(OCC(F)(F)F)nc12 [Compound 208, 1-(5-chloro-6-(4,4-difluoropiperidin-1-yl)pyridin-3-yl)-3-(5-(2,2,2-trifluoroethoxy)-1H-pyrrolo[3,2-b]pyridin-3-yl)urea]
200 to 1000	O=C(Nc1cnc(N2CC3(C2)CC(F)(F)C3)c(Cl)c1)Nc1c[nH]c2cccnc12 [Compound 223, 1-(5-chloro-6-(6,6-difluoro-2-azaspiro[3.3]heptan-2-yl)pyridin-3-yl)-3-(1H-pyrrolo[3,2-b]pyridin-3-yl)urea]

Same assay, conditions: 2′3′cGAMP 15 μM, 24 h, numeric bounds

SMILES	EC50 [nM]
Cn1cc(-n2cc(NC(=O)Nc3ccc(C4CCC(F)(F)CC4)nc3)c3cc(F)cnc32)cn1 [Compound 125, 1-(6-(4,4-difluorocyclohexyl)pyridin-3-yl)-3-(5-fluoro-1-(1-methyl-1H-pyrazol-4-yl)-1H-pyrrolo[2,3-b]pyridin-3-yl)urea]	> 30000
CNC1CC(n2cc(NC(=O)Nc3ccc(C4CCC(F)(F)CC4)nc3)c3cc(F)cnc32)C1 (stereo not drawn) [Compound 124, 1-(6-(4,4-difluorocyclohexyl)pyridin-3-yl)-3-(5-fluoro-1-(3-(methylamino)cyclobutyl)-1H-pyrrolo[2,3-b]pyridin-3-yl)urea]	> 30000

The next lines start with the values.

EC50 [nM]	SMILES
> 30000	O=C(Nc1cnc(N2CCC(F)(F)CC2)cc1Cl)Nc1c[nH]c2ncc(F)cc12 [Compound 183, 1-(4-chloro-6-(4,4-difluoropiperidin-1-yl)pyridin-3-yl)-3-(5-fluoro-1H-pyrrolo[2,3-b]pyridin-3-yl)urea]
> 30000	Cc1cc(N2CCC(F)(F)CC2)ncc1NC(=O)Nc1c[nH]c2nccc(C)c12 [Compound 179, 1-(6-(4,4-difluoropiperidin-1-yl)-4-methylpyridin-3-yl)-3-(4-methyl-1H-pyrrolo[2,3-b]pyridin-3-yl)urea]
> 30000	Cc1cc(NC(=O)Nc2c[nH]c3ncc(F)cc23)cnc1N1CC2(COC2)C1 [Compound 159, 1-(5-fluoro-1H-pyrrolo[2,3-b]pyridin-3-yl)-3-(5-methyl-6-(2-oxa-6-azaspiro[3.3]heptan-6-yl)pyridin-3-yl)urea]
> 30000	Cc1cc(NC(=O)Nc2c[nH]c3ncc(F)cc23)cnc1N1CCOCC1 [Compound 167, 1-(5-fluoro-1H-pyrrolo[2,3-b]pyridin-3-yl)-3-(5-methyl-6-morpholinopyridin-3-yl)urea]
> 30000	O=C(Nc1cnn(C2CCC(F)(F)CC2)c1)Nc1c[nH]c2cccnc12 [Compound 205, 1-(1-(4,4-difluorocyclohexyl)-1H-pyrazol-4-yl)-3-(1H-pyrrolo[3,2-b]pyridin-3-yl)urea]
